Measurements reported in PMC3896386 (Journal of medicinal chemistry, 2013).
Blank lines part the entries; values can stand above or below the molecule they belong to.

How the values were obtained:
[1] = molecular target: T1, RyR2-R4496C mutant HEK293 cell line (Mus musculus, UniProt E9Q401, R4495C); conditions: previously reported; cited from earlier work
[2] = molecular target: T1, RyR2-R4496C mutant HEK293 cell line

T1 sequence (E9Q401 whole entry R4495C): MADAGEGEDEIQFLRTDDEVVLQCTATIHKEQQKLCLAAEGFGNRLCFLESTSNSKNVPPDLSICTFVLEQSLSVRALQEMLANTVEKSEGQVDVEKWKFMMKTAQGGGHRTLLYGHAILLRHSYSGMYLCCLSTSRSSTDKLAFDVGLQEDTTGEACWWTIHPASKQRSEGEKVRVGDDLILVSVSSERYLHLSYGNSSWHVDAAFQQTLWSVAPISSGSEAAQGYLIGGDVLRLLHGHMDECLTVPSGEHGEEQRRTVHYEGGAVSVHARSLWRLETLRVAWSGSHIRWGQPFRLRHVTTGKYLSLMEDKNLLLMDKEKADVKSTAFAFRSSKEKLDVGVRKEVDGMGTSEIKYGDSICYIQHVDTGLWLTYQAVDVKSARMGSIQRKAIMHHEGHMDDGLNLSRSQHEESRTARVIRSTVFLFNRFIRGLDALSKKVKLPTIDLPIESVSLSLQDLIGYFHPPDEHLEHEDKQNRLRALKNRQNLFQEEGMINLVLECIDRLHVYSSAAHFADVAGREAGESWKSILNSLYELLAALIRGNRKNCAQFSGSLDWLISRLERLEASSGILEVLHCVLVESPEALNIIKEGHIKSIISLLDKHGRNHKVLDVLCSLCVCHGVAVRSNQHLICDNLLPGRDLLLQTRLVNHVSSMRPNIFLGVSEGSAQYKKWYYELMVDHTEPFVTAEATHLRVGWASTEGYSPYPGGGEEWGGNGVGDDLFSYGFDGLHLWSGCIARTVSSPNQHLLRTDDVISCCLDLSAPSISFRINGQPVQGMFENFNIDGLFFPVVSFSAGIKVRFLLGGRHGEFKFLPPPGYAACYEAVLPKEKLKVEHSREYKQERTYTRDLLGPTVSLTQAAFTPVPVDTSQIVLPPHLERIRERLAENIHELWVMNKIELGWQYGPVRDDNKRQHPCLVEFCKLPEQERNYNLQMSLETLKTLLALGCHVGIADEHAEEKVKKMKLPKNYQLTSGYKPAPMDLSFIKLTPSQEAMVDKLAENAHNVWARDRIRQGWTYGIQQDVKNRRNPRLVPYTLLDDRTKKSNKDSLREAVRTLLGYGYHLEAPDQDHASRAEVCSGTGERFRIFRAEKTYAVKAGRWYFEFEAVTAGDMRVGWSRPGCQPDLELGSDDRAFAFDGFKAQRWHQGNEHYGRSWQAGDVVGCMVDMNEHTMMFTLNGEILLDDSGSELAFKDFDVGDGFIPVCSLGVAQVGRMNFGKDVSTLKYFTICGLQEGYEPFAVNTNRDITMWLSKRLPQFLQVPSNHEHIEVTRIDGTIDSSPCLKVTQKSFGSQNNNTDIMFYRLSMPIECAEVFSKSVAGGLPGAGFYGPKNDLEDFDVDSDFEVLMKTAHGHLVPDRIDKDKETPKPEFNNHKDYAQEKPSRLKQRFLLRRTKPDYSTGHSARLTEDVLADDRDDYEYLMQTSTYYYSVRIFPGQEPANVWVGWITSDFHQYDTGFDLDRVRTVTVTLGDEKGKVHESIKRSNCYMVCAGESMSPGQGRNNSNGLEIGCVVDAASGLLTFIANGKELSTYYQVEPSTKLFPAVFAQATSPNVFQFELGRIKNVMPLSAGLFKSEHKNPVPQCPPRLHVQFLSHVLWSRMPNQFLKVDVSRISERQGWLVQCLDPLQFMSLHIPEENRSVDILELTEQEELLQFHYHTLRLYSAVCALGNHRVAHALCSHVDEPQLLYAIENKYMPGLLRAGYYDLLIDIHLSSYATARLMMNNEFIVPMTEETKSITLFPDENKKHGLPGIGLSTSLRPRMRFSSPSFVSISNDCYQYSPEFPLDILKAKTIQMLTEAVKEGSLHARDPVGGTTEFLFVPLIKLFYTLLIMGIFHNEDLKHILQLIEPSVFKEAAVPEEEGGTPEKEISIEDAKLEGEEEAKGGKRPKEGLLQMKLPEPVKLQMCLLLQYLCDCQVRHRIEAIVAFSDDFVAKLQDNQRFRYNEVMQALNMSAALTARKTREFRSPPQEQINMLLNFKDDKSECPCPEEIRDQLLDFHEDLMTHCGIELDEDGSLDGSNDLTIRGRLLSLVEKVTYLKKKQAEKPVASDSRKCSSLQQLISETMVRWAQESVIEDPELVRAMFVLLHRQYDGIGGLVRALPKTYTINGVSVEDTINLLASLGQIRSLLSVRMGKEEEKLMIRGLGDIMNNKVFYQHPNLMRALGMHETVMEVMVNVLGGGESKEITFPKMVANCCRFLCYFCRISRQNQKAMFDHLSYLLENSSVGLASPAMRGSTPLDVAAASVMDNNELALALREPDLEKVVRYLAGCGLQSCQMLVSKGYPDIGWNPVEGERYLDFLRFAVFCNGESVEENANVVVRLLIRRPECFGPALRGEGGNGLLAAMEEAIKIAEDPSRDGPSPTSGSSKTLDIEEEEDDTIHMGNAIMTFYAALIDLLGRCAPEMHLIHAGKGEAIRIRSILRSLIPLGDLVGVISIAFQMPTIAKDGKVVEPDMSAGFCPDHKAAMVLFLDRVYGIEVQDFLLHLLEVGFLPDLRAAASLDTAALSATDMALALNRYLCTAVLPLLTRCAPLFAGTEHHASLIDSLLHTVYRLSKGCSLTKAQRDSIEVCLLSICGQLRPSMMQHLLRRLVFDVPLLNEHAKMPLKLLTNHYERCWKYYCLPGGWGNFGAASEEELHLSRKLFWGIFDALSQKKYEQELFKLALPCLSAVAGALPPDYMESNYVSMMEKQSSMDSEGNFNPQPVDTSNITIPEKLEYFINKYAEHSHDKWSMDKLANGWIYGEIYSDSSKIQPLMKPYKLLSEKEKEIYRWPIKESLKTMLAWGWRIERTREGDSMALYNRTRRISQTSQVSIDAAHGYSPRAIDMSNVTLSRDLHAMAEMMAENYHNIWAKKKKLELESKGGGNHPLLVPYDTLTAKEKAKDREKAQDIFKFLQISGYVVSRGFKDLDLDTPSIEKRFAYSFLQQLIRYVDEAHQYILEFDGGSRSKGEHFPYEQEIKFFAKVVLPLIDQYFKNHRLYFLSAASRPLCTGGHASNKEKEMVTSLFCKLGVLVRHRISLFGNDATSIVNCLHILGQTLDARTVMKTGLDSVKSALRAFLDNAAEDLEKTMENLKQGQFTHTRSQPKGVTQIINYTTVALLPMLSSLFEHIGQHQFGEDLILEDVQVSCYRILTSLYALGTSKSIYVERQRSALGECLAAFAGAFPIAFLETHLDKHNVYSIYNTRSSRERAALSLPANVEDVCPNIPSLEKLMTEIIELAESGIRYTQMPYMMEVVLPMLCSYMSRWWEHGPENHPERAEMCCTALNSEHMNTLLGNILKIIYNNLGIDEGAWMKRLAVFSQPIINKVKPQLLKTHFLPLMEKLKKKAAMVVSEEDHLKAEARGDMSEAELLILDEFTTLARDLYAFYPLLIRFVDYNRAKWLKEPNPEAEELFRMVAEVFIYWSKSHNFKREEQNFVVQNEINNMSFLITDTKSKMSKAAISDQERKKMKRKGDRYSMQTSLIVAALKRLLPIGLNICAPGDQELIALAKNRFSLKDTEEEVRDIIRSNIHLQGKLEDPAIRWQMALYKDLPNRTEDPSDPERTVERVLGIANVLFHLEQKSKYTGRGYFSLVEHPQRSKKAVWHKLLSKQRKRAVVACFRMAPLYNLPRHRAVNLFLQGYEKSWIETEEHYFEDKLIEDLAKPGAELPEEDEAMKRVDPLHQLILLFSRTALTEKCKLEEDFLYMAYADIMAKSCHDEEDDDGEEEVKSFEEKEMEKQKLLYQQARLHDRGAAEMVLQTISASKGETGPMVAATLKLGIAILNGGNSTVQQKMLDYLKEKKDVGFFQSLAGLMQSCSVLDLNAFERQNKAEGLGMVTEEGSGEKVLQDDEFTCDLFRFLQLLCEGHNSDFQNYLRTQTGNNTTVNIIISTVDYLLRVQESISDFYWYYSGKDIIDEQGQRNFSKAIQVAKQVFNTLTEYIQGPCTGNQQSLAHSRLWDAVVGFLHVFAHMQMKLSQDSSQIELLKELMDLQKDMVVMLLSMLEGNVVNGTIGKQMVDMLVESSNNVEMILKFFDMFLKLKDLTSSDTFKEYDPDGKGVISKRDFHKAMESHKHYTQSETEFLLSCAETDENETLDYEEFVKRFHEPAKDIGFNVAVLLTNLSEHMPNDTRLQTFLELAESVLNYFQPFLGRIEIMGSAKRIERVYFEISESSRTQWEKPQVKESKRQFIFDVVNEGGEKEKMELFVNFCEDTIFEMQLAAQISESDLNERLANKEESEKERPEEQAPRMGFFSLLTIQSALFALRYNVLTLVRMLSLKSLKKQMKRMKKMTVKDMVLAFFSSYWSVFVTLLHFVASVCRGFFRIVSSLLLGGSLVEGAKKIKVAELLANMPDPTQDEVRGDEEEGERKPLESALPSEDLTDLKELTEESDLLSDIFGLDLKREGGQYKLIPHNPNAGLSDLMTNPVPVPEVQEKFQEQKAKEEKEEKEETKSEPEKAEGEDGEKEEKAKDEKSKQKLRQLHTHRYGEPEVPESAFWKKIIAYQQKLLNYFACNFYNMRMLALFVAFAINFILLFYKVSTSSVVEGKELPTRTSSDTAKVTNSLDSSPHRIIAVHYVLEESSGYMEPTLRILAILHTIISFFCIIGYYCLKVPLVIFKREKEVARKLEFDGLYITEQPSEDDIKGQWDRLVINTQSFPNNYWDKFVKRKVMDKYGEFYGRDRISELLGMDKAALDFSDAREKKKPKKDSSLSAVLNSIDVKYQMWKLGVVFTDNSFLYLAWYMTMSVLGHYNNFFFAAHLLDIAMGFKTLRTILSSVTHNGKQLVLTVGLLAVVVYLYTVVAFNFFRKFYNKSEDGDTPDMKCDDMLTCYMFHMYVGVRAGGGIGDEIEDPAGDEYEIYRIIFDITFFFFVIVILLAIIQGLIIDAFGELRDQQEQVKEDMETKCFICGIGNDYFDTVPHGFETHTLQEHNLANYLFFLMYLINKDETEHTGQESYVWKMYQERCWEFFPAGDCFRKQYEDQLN

Structure (SMILES): COc1ccccc1OCCNCC(O)COc1cccc2[nH]c3ccccc3c12 (stereo not drawn) [carvedilol 1, carvedilol]
- ability to inhibit SOICR [1]: ca. 10 μmolar

- decrease of SOICR-inhibiting activity on lactamization of 34 ([2]; relative to 34): more than 6 fold
Structure (SMILES): COc1ccccc1OCCN1CCC(COc2cccc3[nH]c4ccccc4c23)OCC1=O (stereo not drawn) [compound 35, 7-[(9H-carbazol-4-yloxy)methyl]-4-[2-(2-methoxyphenoxy)ethyl]-1,4-oxazepan-3-one]

- decrease of SOICR-inhibiting activity on oxidation of 66 to the sulfone ([2]; relative to 66): more than 10 fold
Structure (SMILES): COc1ccccc1OCCNCC(O)COc1ccc2c(c1)Nc1ccccc1S2(=O)=O (stereo not drawn) [compound 67, 2-(2-Hydroxy-3-{[2-(2-methoxyphenoxy)ethyl]amino}propoxy)-10H-5λ6,10-phenothiazine-5,5-dione]
